Test results from patent publication US20240150321A1, “PYRAZOLYLSULFONAMIDE COMPOUNDS AND THEIR USE IN THERAPY” (HOTSPOT THERAPEUTICS, INC., priority 2022, published 2024).
pIC50: −log10 of the molar value. Read-outs that look alike come from different tables or passages of the source.

Experiments:
[1] = system: NF-kB reporter in Jurkat cells; assay: NF-kB reporter assay in Jurkat cells stimulated with aCD3/aCD28/PMA; format: cell-based; conditions: Homo sapiens, read-out: NF-kB Reporter Assay IC50
Procedure, shortened: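 Jurkat cells (25,000/well, serum-free RPMI) were pre-incubated 1 h at 37° C with serially diluted compound, then stimulated 4 h with aCD3/aCD28/PMA at final […]. NF-kB reporter activity was read by One-Glo luminescence; IC50 values reported.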

Avi-tagged FL MALT-1 = Avi-tagged FL MALT-1 (Homo sapiens (Human), UniProt Q9UDY8); assay: MALT-1 Fluorogenic Peptide Cleavage Assay (MALT1 inhibition assay); format: biochemical; conditions: Ac-LRSR-AMC peptide substrate, 30 min pre-incubation, 90 min reaction at room temperature
Procedure, shortened: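 Full-length Avi-tagged human MALT-1 (40 nM working stock) pre-incubated 30 min at RT with compound in 25 mM HEPES pH 6.89, 660 mM sodium citrate, 1 mM TCEP, […], 0.05% CHAPS, 2% DMSO. Ac-LRSR-AMC added at Km (50 μM working stock) or 10×Km (280 μM working stock); 90 min at RT, AMC fluorescence (ex 342/em 441 nm), IC50 from % inhibition curves.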

[2] = Jurkat cells, 1 hr compound pre-incubation, aCD3/aCD28/PMA stimulation 4 hr, One-Glo readout

Sequence of Avi-tagged FL MALT-1 (Q9UDY8 whole entry): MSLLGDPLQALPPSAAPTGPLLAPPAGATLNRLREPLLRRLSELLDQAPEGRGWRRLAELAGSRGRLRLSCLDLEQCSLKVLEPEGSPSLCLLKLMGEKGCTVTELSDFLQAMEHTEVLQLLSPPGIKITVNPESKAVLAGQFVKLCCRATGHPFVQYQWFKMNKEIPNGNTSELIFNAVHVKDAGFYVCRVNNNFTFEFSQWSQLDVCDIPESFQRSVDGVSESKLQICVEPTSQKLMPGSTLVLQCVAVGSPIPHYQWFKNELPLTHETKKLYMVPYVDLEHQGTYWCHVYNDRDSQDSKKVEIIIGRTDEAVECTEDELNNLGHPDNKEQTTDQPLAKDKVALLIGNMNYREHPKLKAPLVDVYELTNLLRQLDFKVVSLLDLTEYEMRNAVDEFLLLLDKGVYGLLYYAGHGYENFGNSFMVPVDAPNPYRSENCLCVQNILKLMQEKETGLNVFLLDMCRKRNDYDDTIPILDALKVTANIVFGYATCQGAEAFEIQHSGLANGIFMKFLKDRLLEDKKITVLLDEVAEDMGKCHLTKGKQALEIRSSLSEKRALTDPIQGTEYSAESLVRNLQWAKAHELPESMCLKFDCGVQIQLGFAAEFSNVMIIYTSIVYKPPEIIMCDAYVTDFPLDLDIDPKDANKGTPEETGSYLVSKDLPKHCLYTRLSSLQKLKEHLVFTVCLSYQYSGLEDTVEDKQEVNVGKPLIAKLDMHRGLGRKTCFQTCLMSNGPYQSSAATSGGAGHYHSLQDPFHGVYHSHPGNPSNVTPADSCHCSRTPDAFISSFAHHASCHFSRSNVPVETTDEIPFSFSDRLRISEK

`CCc1ccc2cnn(C)c2c1NS(=O)(=O)c1cnn(-c2cc(C(C)(C)O)ccn2)c1` [Compound I-274, N-(6-ethyl-1-methyl-1H-indazol-7-yl)-1-(4-(2-hydroxypropan-2-yl)pyridin-2-yl)-1H-pyrazole-4-sulfonamide] gave a pIC50 [1, 2] greater than 6.40 and a pIC50 (Avi-tagged FL MALT-1) of no less than 6.40.
With `COC[C@@](C)(O)c1ccnc(-n2cc(S(=O)(=O)Nc3cccc4cnn(C)c34)cn2)c1` [Compound I-275] the pIC50 [1, 2] was 5.60 to 6.00 and the pIC50 (Avi-tagged FL MALT-1) was less than 5.60.
In the case of `CCC(O)(CC)c1ccnc(-n2cc(S(=O)(=O)Nc3cccc4cnn(C)c34)cn2)c1` [Compound I-276], the pIC50 [1, 2] was greater than 6.40 and the pIC50 (Avi-tagged FL MALT-1) was less than 5.60.
For `CC[C@@H](O)c1ccnc(-n2cc(S(=O)(=O)Nc3cccc4cnn(C)c34)cn2)c1` [Compound I-278, (R)-1-(4-(1-hydroxypropyl)pyridin-2-yl)-N-(1-methyl-1H-indazol-7-yl)-1H-pyrazole-4-sulfonamide], the pIC50 [1, 2] was greater than 6.40 and the pIC50 (Avi-tagged FL MALT-1) was less than 5.60.
In the case of `CCC(O)(CC)c1ccnc(-n2cc(S(=O)(=O)Nc3c(OC)ccc4cnn(C)c34)cn2)c1` [Compound I-279, 1-[4-(3-hydroxypentan-3-yl)pyridin-2-yl]-N-(6-methoxy-1-methylindazol-7-yl)pyrazole-4-sulfonamide], the pIC50 [1, 2] was 6.00 to 6.40 and the pIC50 (Avi-tagged FL MALT-1) was 6.00 to 6.40.
For `Cn1ncc2cccc(NS(=O)(=O)c3cnn(-c4cc(N5CCOC5=O)ccn4)c3)c21` [Compound I-282, N-(1-methyl-1H-indazol-7-yl)-1-(4-(2-oxooxazolidin-3-yl)pyridin-2-yl)-1H-pyrazole-4-sulfonamide], the pIC50 [1, 2] was greater than 6.40 and the pIC50 (Avi-tagged FL MALT-1) was less than 5.60.
`Cn1ncc2cccc(NS(=O)(=O)c3cnn(-c4cc(N5CC(C)(C)OC5=O)ccn4)c3)c21` [Compound I-283] gave a pIC50 [1, 2] greater than 6.40 and a pIC50 (Avi-tagged FL MALT-1) of less than 5.60.
For `Cn1ncc2cccc(NS(=O)(=O)c3cnn(-c4cc(N5CCCC5=O)ccn4)c3)c21` [Compound I-284], the pIC50 [1, 2] was greater than 6.40 and the pIC50 (Avi-tagged FL MALT-1) was less than 5.60.
In the case of `Cn1ncc2cccc(NS(=O)(=O)c3cnn(-c4cc(N5CC(C)(C)NC5=O)ccn4)c3)c21` [Compound I-285, 1-(4-(4,4-Dimethyl-2-Oxoimidazolidin-1-yl)Pyridin-2-yl)-N-(1-Methyl-1H-Indazol-7-yl)-1H-Pyrazole-4-Sulfonamide], the pIC50 [1, 2] was 6.00 to 6.40 and the pIC50 (Avi-tagged FL MALT-1) was less than 5.60.
`COc1ncc2cnn(C)c2c1NS(=O)(=O)c1cnn(-c2cc(C(F)(F)F)n(C)n2)c1` [Compound I-286, N-(6-methoxy-1-methyl-1H-pyrazolo[4,3-c]pyridin-7-yl)-1′-methyl-5′-(trifluoromethyl)-1′H-[1,3′-bipyrazole]-4-sulfonamide] showed a pIC50 [1, 2] of 6.00 to 6.40 and a pIC50 (Avi-tagged FL MALT-1) of no less than 6.40.
With `CC(=O)N1CC(O)(c2ccnc(-n3cc(S(=O)(=O)Nc4cccc5cnn(C)c45)cn3)c2)C1` [Compound I-287] the pIC50 [1, 2] was less than 5.60 and the pIC50 (Avi-tagged FL MALT-1) was less than 5.60.
Work on `Cn1ncc2cccc(NS(=O)(=O)c3cnn(-c4cc([C@]5(O)C[C@H](C)C5)ccn4)c3)c21` [Compound I-288, 1-(4-((1r,3r)-1-hydroxy-3-methyl-cyclobutyl)pyridin-2-yl)-N-(1-methyl-1H-indazol-7-yl)-1H-pyrazole-4-sulfonamide] yielded a pIC50 [1, 2] greater than 6.40 and a pIC50 (Avi-tagged FL MALT-1) of less than 5.60.
Compound `COCC(F)(COC)c1ccnc(-n2cc(S(=O)(=O)Nc3cccc4cnn(C)c34)cn2)c1` [Compound I-289] has a pIC50 [1, 2] of less than 5.60 and a pIC50 (Avi-tagged FL MALT-1) of less than 5.60.
With `CC[C@](C)(O)c1ccnc(-n2cc(S(=O)(=O)Nc3cccc4cnn(C)c34)cn2)c1` [Compound I-294] the pIC50 [1, 2] was greater than 6.40 and the pIC50 (Avi-tagged FL MALT-1) was less than 5.60.
Compound `CC[C@@](C)(O)c1ccnc(-n2cc(S(=O)(=O)Nc3cccc4cnn(C)c34)cn2)c1` [Compound I-295] has a pIC50 [1, 2] greater than 6.40 and a pIC50 (Avi-tagged FL MALT-1) of less than 5.60.
`CCC(CC)(OC)c1ccnc(-n2cc(S(=O)(=O)Nc3cccc4cnn(C)c34)cn2)c1` [Compound I-296] was tested, and the pIC50 [1, 2] was greater than 6.40 and the pIC50 (Avi-tagged FL MALT-1) was less than 5.60.
With `CCC(OC)c1ccnc(-n2cc(S(=O)(=O)Nc3cccc4cnn(C)c34)cn2)c1` (stereo not drawn) [Compound I-297, 1-{4-[1-methoxypropyl]pyridin-2-yl}-N-(1-methylindazol-7-yl)pyrazole-4-sulfonamide] the pIC50 [1, 2] was greater than 6.40 and the pIC50 (Avi-tagged FL MALT-1) was less than 5.60.
In the case of `CC[C@@H](OC)c1ccnc(-n2cc(S(=O)(=O)Nc3cccc4cnn(C)c34)cn2)c1` [Compound I-298], the pIC50 [1, 2] was greater than 6.40 and the pIC50 (Avi-tagged FL MALT-1) was less than 5.60.
Work on `CCC(CC)(OC)c1ccnc(-n2cc(S(=O)(=O)Nc3c(OC)ccc4cnn(C)c34)cn2)c1` [Compound I-299, N-(6-Methoxy-1-Methyl-1H-Indazol-7-yl)-1-(4-(3-Methoxypentan-3-yl)Pyridin-2-yl)-1H-Pyrazole-4-Sulfonamide] yielded a pIC50 [1, 2] of 6.00 to 6.40 and a pIC50 (Avi-tagged FL MALT-1) of no less than 6.40.
`COC[C@](C)(OC)c1ccnc(-n2cc(S(=O)(=O)Nc3cccc4cnn(C)c34)cn2)c1` [Compound I-300] was tested, and the pIC50 [1, 2] was greater than 6.40 and the pIC50 (Avi-tagged FL MALT-1) was less than 5.60.
For `COC[C@@](C)(OC)c1ccnc(-n2cc(S(=O)(=O)Nc3cccc4cnn(C)c34)cn2)c1` [Compound I-301], the pIC50 [1, 2] was greater than 6.40 and the pIC50 (Avi-tagged FL MALT-1) was less than 5.60.
In the case of `C[C@@H]1COC(=O)N1c1ccnc(-n2cc(S(=O)(=O)Nc3cccc4cnn(C)c34)cn2)c1` [Compound I-302], the pIC50 [1, 2] was greater than 6.40 and the pIC50 (Avi-tagged FL MALT-1) was less than 5.60.
`C[C@H]1COC(=O)N1c1ccnc(-n2cc(S(=O)(=O)Nc3cccc4cnn(C)c34)cn2)c1` [Compound I-303] gave a pIC50 [1, 2] greater than 6.40 and a pIC50 (Avi-tagged FL MALT-1) of less than 5.60.
With `COC[C@@H](O)c1ccnc(-n2cc(S(=O)(=O)Nc3cccc4cnn(C)c34)cn2)c1` [Compound I-304] the pIC50 [1, 2] was 6.00 to 6.40 and the pIC50 (Avi-tagged FL MALT-1) was less than 5.60.
Compound `COC[C@H](O)c1ccnc(-n2cc(S(=O)(=O)Nc3cccc4cnn(C)c34)cn2)c1` [Compound I-305] has a pIC50 [1, 2] of 6.00 to 6.40 and a pIC50 (Avi-tagged FL MALT-1) of less than 5.60.
`CO[C@]1(c2ccnc(-n3cc(S(=O)(=O)Nc4cccc5cnn(C)c45)cn3)c2)CCOC1` [Compound I-306] showed a pIC50 [1, 2] greater than 6.40 and a pIC50 (Avi-tagged FL MALT-1) of less than 5.60.
`Cn1ncc2cccc(NS(=O)(=O)c3cnn(-c4cc(C(C)(C)CO)ccn4)c3)c21` [Compound I-307, 1-(4-(1-hydroxy-2-methylpropan-2-yl)pyridin-2-yl)-N-(1-methyl-1H-indazol-7-yl)-1H-pyrazole-4-sulfonamide] showed a pIC50 [1, 2] greater than 6.40 and a pIC50 (Avi-tagged FL MALT-1) of less than 5.60.
For `CN1CCC[C@@H](n2cc(S(=O)(=O)Nc3cccc4cnn(C)c34)cn2)C1` [Compound I-308, N-(1-methylindazol-7-yl)-1-[(3R)-1-methylpiperidin-3-yl]pyrazole-4-sulfonamide], the pIC50 [1, 2] was less than 5.60 and the pIC50 (Avi-tagged FL MALT-1) was less than 5.60.
With `CN1CCC[C@H](n2cc(S(=O)(=O)Nc3cccc4cnn(C)c34)cn2)C1` [Compound I-309] the pIC50 [1, 2] was less than 5.60 and the pIC50 (Avi-tagged FL MALT-1) was less than 5.60.
With `CO[C@@]1(c2ccnc(-n3cc(S(=O)(=O)Nc4cccc5cnn(C)c45)cn3)c2)CCOC1` [Compound I-311] the pIC50 [1, 2] was greater than 6.40 and the pIC50 (Avi-tagged FL MALT-1) was less than 5.60.
`CC[C@@](C)(O)c1ccnc(-n2cc(S(=O)(=O)Nc3c(OC)ccc4cnn(C)c34)cn2)c1` [Compound I-316] gave a pIC50 [1, 2] greater than 6.40 and a pIC50 (Avi-tagged FL MALT-1) of 5.60 to 6.00.
For `CC[C@H](OC)c1ccnc(-n2cc(S(=O)(=O)Nc3c(OC)ccc4cnn(C)c34)cn2)c1` [Compound I-317, (S)—N-(6-Methoxy-1-Methyl-1H-Indazol-7-yl)-1-(4-(1-Methoxypropyl)Pyridin-2-yl)-1H-Pyrazole-4-Sulfonamide], the pIC50 [1, 2] was greater than 6.40 and the pIC50 (Avi-tagged FL MALT-1) was no less than 6.40.
`CC[C@@H](OC)c1ccnc(-n2cc(S(=O)(=O)Nc3c(OC)ccc4cnn(C)c34)cn2)c1` [Compound I-318, N-(6-methoxy-1-methylindazol-7-yl)-1-{4-[(1R)-1-methoxypropyl]pyridin-2-yl}pyrazole-4-sulfonamide] showed a pIC50 [1, 2] greater than 6.40 and a pIC50 (Avi-tagged FL MALT-1) of no less than 6.40.
Compound `C[C@H]1CN(c2ccnc(-n3cc(S(=O)(=O)Nc4cccc5cnn(C)c45)cn3)c2)C(=O)O1` [Compound I-319] has a pIC50 [1, 2] greater than 6.40 and a pIC50 (Avi-tagged FL MALT-1) of less than 5.60.
`C[C@@H]1CN(c2ccnc(-n3cc(S(=O)(=O)Nc4cccc5cnn(C)c45)cn3)c2)C(=O)O1` [Compound I-320] showed a pIC50 [1, 2] greater than 6.40 and a pIC50 (Avi-tagged FL MALT-1) of less than 5.60.
`Cn1ncc2cccc(NS(=O)(=O)c3cnn(-c4cc(N5C(=O)OCC5(C)C)ccn4)c3)c21` [Compound I-321] gave a pIC50 [1, 2] greater than 6.40 and a pIC50 (Avi-tagged FL MALT-1) of less than 5.60.
For `CN1CCN(c2ccnc(-n3cc(S(=O)(=O)Nc4cccc5cnn(C)c45)cn3)c2)C1=O` [Compound I-322], the pIC50 [1, 2] was greater than 6.40 and the pIC50 (Avi-tagged FL MALT-1) was less than 5.60.
`COc1ccc2cnn(C)c2c1NS(=O)(=O)c1cnn(-c2cc(CO)ccn2)c1` [Compound I-323, 1-[4-(hydroxymethyl)pyridin-2-yl]-N-(6-methoxy-1-methylindazol-7-yl)pyrazole-4-sulfonamide] was tested, and the pIC50 [1, 2] was greater than 6.40 and the pIC50 (Avi-tagged FL MALT-1) was 6.00 to 6.40.
With `Cn1ncc2cccc(NS(=O)(=O)c3cnn(-c4cc(NC(C)(C)CO)ccn4)c3)c21` [Compound I-324, 1-(4-((1-Hydroxy-2-Methylpropan-2-yl)Amino)Pyridin-2-yl)-N-(1-Methyl-1H-Indazol-7-yl)-1H-Pyrazole-4-Sulfonamide] the pIC50 [1, 2] was greater than 6.40 and the pIC50 (Avi-tagged FL MALT-1) was less than 5.60.
In the case of `CN1CC(c2ccnc(-n3cc(S(=O)(=O)Nc4cccc5cnn(C)c45)cn3)c2)C1` [Compound I-325], the pIC50 [1, 2] was less than 5.60 and the pIC50 (Avi-tagged FL MALT-1) was less than 5.60.
`CC(=O)N1CC(c2ccnc(-n3cc(S(=O)(=O)Nc4cccc5cnn(C)c45)cn3)c2)C1` [Compound I-326] showed a pIC50 [1, 2] of less than 5.60 and a pIC50 (Avi-tagged FL MALT-1) of less than 5.60.
`Cn1ncc2ccc(OC(F)(F)F)c(NS(=O)(=O)c3cnn(-c4cc(C(F)(F)F)ccn4)c3)c21` [Compound I-327, N-[1-methyl-6-(trifluoromethoxy)indazol-7-yl]-1-[4-(trifluoromethyl)pyridin-2-yl]pyrazole-4-sulfonamide] gave a pIC50 ([1]; Jurkat) greater than 6.40 and a pIC50 (Avi-tagged FL MALT-1) of no less than 6.40.
